Data as given in patent EP2818472A1, “Imidazo[4,5-c]pyridine and pyrrolo[3,2-c]pyridine compounds as G-protein-coupled receptor kinase 5 (GRK5) modulators” (Max-Planck-Gesellschaft zur Förderung der Wissenschaften …, priority 2013, dated 2014).

Tested on: beta-TC6 cells
Test: Insulin HTRF assay (relative activity Ar) in beta-TC6 cells
Assay type: cell-based, mouse
Details: Mus musculus, Beta-TC6, 4 h, insulin HTRF, supernatant of beta-TC6 cells, incubation with test compound at 37°C for 2, 3, 4h; read-out: Ar (relative activity)
In short: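 beta-TC6 cells (15k/well, seeded 24 or 48 h) washed, then exposed to compound in induction buffer (0.5% DMSO final) for 2, 3 or 4 h at 37°C.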

Compared with `CNc1nc2cnc(Nc3ccc4c(c3)OCCO4)cc2n1-c1cccc(C(F)(F)F)c1` [Compound 544, N6-(2,3-dihydro-1,4-benzodioxin-6-yl)-N2-methyl-1-[3-(trifluoromethyl)phenyl]imidazo[4,5-c]pyridine-2,6-diamine], `CNc1nc2cnc(Nc3ccc4c(c3)OCO4)cc2n1-c1cccc(C(F)(F)F)c1` [Compound 549, N6-(1,3-benzodioxol-5-yl)-N2-methyl-1-[3-(trifluoromethyl)phenyl]imidazo[4,5-c]pyridine-2,6-diamine] is lower in Emax: 50 to 100% for the first, 30 to 50% for the second.

Compared with `CNc1nc2cnc(Nc3ccc(OC)c(OC)c3)cc2n1-c1cccc(C(F)(F)F)c1` [Compound 545, N6-(3,4-dimethoxyphenyl)-N2-methyl-1-[3-(trifluoromethyl)phenyl]imidazo[4,5-c]pyridine-2,6-diamine], `CNc1nc2cnc(Nc3ccc(OC)c(O)c3)cc2n1-c1cccc(C(F)(F)F)c1` [Compound 551, 2-methoxy-5-[[2-(methylamino)-1-[3-(trifluoromethyl)phenyl]imidazo[4,5-c]pyridin-6-yl]amino]phenol] is higher in Emax: 30 to 50% for the first, 50 to 100% for the second.

`CNc1nc2cnc(Nc3ccc(OC)nc3)cc2n1-c1cccc(C(F)(F)F)c1` [Compound 546, N6-(6-methoxy-3-pyridyl)-N2-methyl-1-[3-(trifluoromethyl)phenyl]imidazo[4,5-c]pyridine-2,6-diamine] and `CNc1nc2cnc(Nc3ccc(OC)cc3)cc2n1-c1cccc(C(F)(F)F)c1` [Compound 547, N6-(4-methoxyphenyl)-N2-methyl-1-[3-(trifluoromethyl)phenyl]imidazo[4,5-c]pyridine-2,6-diamine] fall in the same range of Emax: 30 to 50% for the first, 30 to 50% for the second.

`CNc1nc2cnc(Nc3ccccn3)cc2n1-c1cccc(C(F)(F)F)c1` [Compound 548, N2-methyl-N6-(2-pyridyl)-1-[3-(trifluoromethyl)phenyl]imidazo[4,5-c]pyridine-2,6-diamine] and `CNc1nc2cnc(Nc3cccc(O)c3)cc2n1-c1cccc(C(F)(F)F)c1` [Compound 550, 3-[[2-(methylamino)-1-[3-(trifluoromethyl)phenyl]imidazo[4,5-c]pyridin-6-yl]amino]phenol] fall in the same range of Emax: 30 to 50% for the first, 30 to 50% for the second.

`CNc1nc2cnc(Nc3cccc(OC)c3)cc2n1CCN1CCOCC1` [Compound 552, N6-(3-methoxyphenyl)-N2-methyl-1-(2-morpholinoethyl)imidazo[4,5-c]pyridine-2,6-diamine] and `CNc1nc2cnc(Nc3cccc(C)c3)cc2n1CCN1CCOCC1` [Compound 556, N2-methyl-1-(2-morpholinoethyl)-N6-(m-tolyl)imidazo[4,5-c]pyridine-2,6-diamine] fall in the same range of Emax: 30 to 50% for the first, 30 to 50% for the second.

`CNc1nc2cnc(Nc3ccc(OC)cc3OC)cc2n1CCN1CCOCC1` [Compound 553, N6-(2,4-dimethoxyphenyl)-N2-methyl-1-(2-morpholinoethyl)imidazo[4,5-c]pyridine-2,6-diamine] and `CNc1nc2cnc(Nc3ccc(OC)c(OC)c3)cc2n1CCN1CCOCC1` [Compound 555, N6-(3,4-dimethoxyphenyl)-N2-methyl-1-(2-morpholinoethyl)imidazo[4,5-c]pyridine-2,6-diamine] fall in the same range of Emax: 30 to 50% for the first, 30 to 50% for the second.

First: CNc1nc2cnc(Nc3ccc4c(c3)OCCO4)cc2n1CCN1CCOCC1 [Compound 554, N6-(2,3-dihydro-1,4-benzodioxin-6-yl)-N2-methyl-1-(2-morpholinoethyl)imidazo[4,5-c]pyridine-2,6-diamine]
Second: CNc1nc2cnc(Nc3ccc4c(c3)OCCO4)cc2n1CC1CC1 [Compound 570, 1-(cyclopropylmethyl)-N6-(2,3-dihydro-1,4-benzodioxin-6-yl)-N2-methyl-imidazo[4,5-c]pyridine-2,6-diamine]
The Emax of the first is higher: 50 to 100% for the first, 30 to 50% for the second.

`CNc1nc2cnc(Nc3ccc(OC)cc3)cc2n1CCN1CCOCC1` [Compound 557, N6-(4-methoxyphenyl)-N2-methyl-1-(2-morpholinoethyl)imidazo[4,5-c]pyridine-2,6-diamine] and `CNc1nc2cnc(Nc3cccc(C(C)=O)c3)cc2n1CCN1CCOCC1` [Compound 558, 1-[3-[[2-(methylamino)-1-(2-morpholinoethyl)imidazo[4,5-c]pyridin-6-yl]amino]phenyl]ethanone] fall in the same range of Emax: 50 to 100% for the first, 50 to 100% for the second.

`CNc1nc2cnc(Nc3cc(OC)c(OC)c(OC)c3)cc2n1Cc1cccnc1` [Compound 559, N2-methyl-1-(3-pyridylmethyl)-N6-(3,4,5-trimethoxyphenyl)imidazo[4,5-c]pyridine-2,6-diamine] and `CNc1nc2cnc(Nc3cc(OC)c(OC)c(OC)c3)cc2n1CC1CC1` [Compound 567, 1-(cyclopropylmethyl)-N2-methyl-N6-(3,4,5-trimethoxyphenyl)imidazo[4,5-c]pyridine-2,6-diamine] fall in the same range of Emax: 50 to 100% for the first, 50 to 100% for the second.

`CNc1nc2cnc(Nc3cccc(OC)c3)cc2n1Cc1cccnc1` [Compound 560, N6-(3-methoxyphenyl)-N2-methyl-1-(3-pyridylmethyl)imidazo[4,5-c]pyridine-2,6-diamine] and `CNc1nc2cnc(Nc3cccc(C)c3)cc2n1Cc1cccnc1` [Compound 564, N2-methyl-N6-(m-tolyl)-1-(3-pyridylmethyl)imidazo[4,5-c]pyridine-2,6-diamine] fall in the same range of Emax: 50 to 100% for the first, 50 to 100% for the second.

Compared with `CNc1nc2cnc(Nc3ccc4c(c3)OCCO4)cc2n1Cc1cccnc1` [Compound 561, N6-(2,3-dihydro-1,4-benzodioxin-6-yl)-N2-methyl-1-(3-pyridylmethyl)imidazo[4,5-c]pyridine-2,6-diamine], `CNc1nc2cnc(Nc3ccc(F)cc3)cc2n1Cc1cccnc1` [Compound 565, N6-(4-fluorophenyl)-N2-methyl-1-(3-pyridylmethyl)imidazo[4,5-c]pyridine-2,6-diamine] is lower in Emax: > 100% for the first, 50 to 100% for the second.

`CNc1nc2cnc(Nc3ccccc3)cc2n1Cc1cccnc1` [Compound 562, N2-methyl-N6-phenyl-1-(3-pyridylmethyl)imidazo[4,5-c]pyridine-2,6-diamine] and `CNc1nc2cnc(-c3cccs3)cc2n1Cc1cccnc1` [Compound 566, N-methyl-1-(3-pyridylmethyl)-6-(2-thienyl)imidazo[4,5-c]pyridin-2-amine] fall in the same range of Emax: 30 to 50% for the first, 30 to 50% for the second.

Compared with `CNc1nc2cnc(-c3cccnc3)cc2n1Cc1cccnc1` [Compound 563, N-methyl-6-(3-pyridyl)-1-(3-pyridylmethyl)imidazo[4,5-c]pyridin-2-amine], `CC(=O)Nc1cccc(-c2cc3c(cn2)nc(NCc2cccc(C)c2)n3C)c1` [Compound 580, N-[3-[1-methyl-2-(m-tolylmethylamino)imidazo[4,5-c]pyridin-6-yl]phenyl]acetamide] is lower in Emax: 50 to 100% for the first, 30 to 50% for the second.

`CNc1nc2cnc(Nc3ccc(NC(C)=O)cc3)cc2n1CC1CC1` [Compound 568, N-[4-[[1-(cyclopropylmethyl)-2-(methylamino)imidazo[4,5-c]pyridin-6-yl]amino]phenyl]acetamide] and `CNc1nc2cnc(Nc3cccc(NC(C)=O)c3)cc2n1CC1CC1` [Compound 574, N-[3-[[1-(cyclopropylmethyl)-2-(methylamino)imidazo[4,5-c]pyridin-6-yl]amino]phenyl]acetamide] fall in the same range of Emax: 50 to 100% for the first, 50 to 100% for the second.

`CNc1nc2cnc(Nc3ccc(OC)cc3OC)cc2n1CC1CC1` [Compound 569, 1-(cyclopropylmethyl)-N6-(2,4-dimethoxyphenyl)-N2-methyl-imidazo[4,5-c]pyridine-2,6-diamine] and `CNc1nc2cnc(Nc3cccc(N(C)C)c3)cc2n1CC1CC1` [Compound 573, 1-(cyclopropylmethyl)-N6-[3-(dimethylamino)phenyl]-N2-methyl-imidazo[4,5-c]pyridine-2,6-diamine] fall in the same range of Emax: 30 to 50% for the first, 30 to 50% for the second.

`CNc1nc2cnc(Nc3ccc(N4CCOCC4)cc3)cc2n1CC1CC1` [Compound 571, 1-(cyclopropylmethyl)-N2-methyl-N6-(4-morpholinophenyl)imidazo[4,5-c]pyridine-2,6-diamine] and `CNc1nc2cnc(Nc3ccc(N4CCN(C)CC4)cc3)cc2n1CC1CC1` [Compound 572, 1-(cyclopropylmethyl)-N2-methyl-N6-[4-(4-methylpiperazin-1-yl)phenyl]imidazo[4,5-c]pyridine-2,6-diamine] fall in the same range of Emax: 50 to 100% for the first, 50 to 100% for the second.

First: CC(=O)Nc1ccc(Nc2cc3c(cn2)nc(NCc2cccc(C)c2)n3C)cc1 [Compound 576, N-[4-[[1-methyl-2-(m-tolylmethylamino)imidazo[4,5-c]pyridin-6-yl]amino]phenyl]acetamide]
Second: Cc1cccc(CNc2nc3cnc(Nc4ccc(F)cc4)cc3n2C)c1 [Compound 582, N6-(4-fluorophenyl)-1-methyl-N2-(m-tolylmethyl)imidazo[4,5-c]pyridine-2,6-diamine]
The Emax of the first is higher: 50 to 100% for the first, 30 to 50% for the second.

`Cc1cccc(CNc2nc3cnc(Nc4ccc5c(c4)OCCO5)cc3n2C)c1` [Compound 577, N6-(2,3-dihydro-1,4-benzodioxin-6-yl)-1-methyl-N2-(m-tolylmethyl)imidazo[4,5-c]pyridine-2,6-diamine] and `COc1ccc(Nc2cc3c(cn2)nc(NCc2cccc(C)c2)n3C)cc1OC` [Compound 578, N6-(3,4-dimethoxyphenyl)-1-methyl-N2-(m-tolylmethyl)imidazo[4,5-c]pyridine-2,6-diamine] fall in the same range of Emax: 50 to 100% for the first, 50 to 100% for the second.

`COc1ccc(-c2cc3c(cn2)nc(NCc2cccc(C)c2)n3C)cc1OC` [Compound 579, 6-(3,4-dimethoxyphenyl)-1-methyl-N-(m-tolylmethyl)imidazo[4,5-c]pyridin-2-amine] and `Cc1cccc(CNc2nc3cnc(-c4ccc(Cl)cc4)cc3n2C)c1` [Compound 581, 6-(4-chlorophenyl)-1-methyl-N-(m-tolylmethyl)imidazo[4,5-c]pyridin-2-amine] fall in the same range of Emax: 30 to 50% for the first, 30 to 50% for the second.

Compared with `Cc1cccc(CNc2nc3cnc(-c4ccoc4)cc3n2C)c1` [Compound 583, 6-(3-furyl)-1-methyl-N-(m-tolylmethyl)imidazo[4,5-c]pyridin-2-amine], `Cc1cccc(CNc2nc3cnc(Nc4cccc(S(C)(=O)=O)c4)cc3n2C)c1` [Compound 584, 1-methyl-N6-(3-methylsulfonylphenyl)-N2-(m-tolylmethyl)imidazo[4,5-c]pyridine-2,6-diamine] is lower in Emax: 50 to 100% for the first, 30 to 50% for the second.
